Measured values from BindingDB's records for doi:10.1021/jm9605849 (Monash University, 1997).

Molecular target: 5-hydroxytryptamine receptor 1D (Bos taurus)
Assay: Affinity pKi for 5-hydroxytryptamine 1D receptor was measured in calf caudate homogenate

A Ki of 10 µM was found for CCOC(=O)c1[nH]c2ccc(CCN3C(=O)CNC3=O)cc2c1CCN(C)C in this work.
